# Patent US9012505B2, “Antimicrobial compounds and uses thereof” (priority 2010, dated 2015)
# Entries after “also recorded” stand apart in the source; their conditions may differ.
# What was measured:
# exsC = experiment: Semi-quantitative RT-PCR of T3SS gene expression; assay type: cell-based, Pseudomonas aeruginosa; details: MDEA treatment, concentration not given
# Protocol: Bacteria were grown in LB medium supplemented with 10 mM NTA at 37° C. with shaking (250 rpm) overnight were diluted to an OD600 of 0.05 in fresh LB medium and grown under the same conditions to an OD600 of 1.5. RNA samples were isolated using the RNeasy mini kit according to the manufacturer's instructions (Qiagen). The concentration and purity of RNA were determined by spectrometry and agarose gel electrophoresis. RT-PCR analysis was performed using the One-step RT-PCR kit according to the manufacturer's instructions (Qiagen) with the primer pairs RT-C—F/RT-C—R ((5′-[…] (SEQ ID NO: 5), 5′-[…] (SEQ ID NO: 6)).
# The effect of MDEA on inhibition of T3SS was further analyzed by semi-quantitative RT-PCR. […] The data are consistent with the results based on the T3SS reporter (FIG. 3a).
# [1] = tested on: C. albicans strain SC5314; experiment: Candida albicans germ tube formation (morphological transition); assay type: cell-based; details: 37° C., 3 h, solvent control about 70%
# Protocol: C. albicans strain SC5314 was incubated at 28° C. for overnight with shaking in the GMM medium consisting of 6.7 g of Bacto yeast nitrogen base (Difco) and 0.2% glucose (pH 7.2). C. albicans cells proliferate in yeast form under these conditions. The yeast cells were then diluted 20-fold in fresh GMM medium with or without MDEA. The cells were induced for 3 h at 37° C. Visualization and quantification of germ tube formation were performed using a phase contrast microscope (Olympus BX50) by counting about 400 C. albicans cells. The experiment was repeated twice, and the imaging was done with an Olympus DP70 digital camera.
# Candida albicans is a fungal pathogen responsible for various forms of candiasis ranging from mucosal damages to serious systemic infections. It normally exists as a yeast but can form germ tubes (mycelia) under certain environmental conditions including human body temperature and serum. This morphological transition ability is critical for the fungal pathogen to establish infections. Mutants defective in morphological transitions are avirulent and unable to cause infections (Lo et al., 1997; Braun et al., 2000; Saville et al., 2003; Zheng et al., 2003). […] MDEA represents another structurally different unsaturated fatty acid. To determine its potential inhibitory activity MDEA was added to medium at various concentrations before inoculation of the fungal yeast cells, using methanol as a solvent control. After incubation at 37° C. for 3 h, about 70% of C. albicans cells in solvent control formed germ tubes (FIG. 4). In contrast, less than 30% and 5% of yeast cells could germinate in the presence of 0.5 or 5 μM of MDEA (FIG. 4). When the concentration was increased to 25 μM, the germ tube formation was reduced to 0.17% (FIG. 4).
# [2] = tested on: Xanthomonas campestris strain 8004dF; experiment: Biofilm assay (Xcc biofilm dispersal, cell aggregates by phase contrast microscopy); assay type: cell-based; details: YEB medium
# Protocol: For analysis of biofilm formation, a single colony of Xanthomonas campestris strain 8004dF (He et al., 2006) was inoculated and grown overnight at 28° C. in 5 ml of YEB medium. The bacterial cells in culture were visualized with a phase contrast microscope (Olympus BX50) and photographs were taken with an Olympus DP70 digital camera.
# Given its structural similarity to DSF (Wang et al., 2004), which is known to regulate biofilm dispersal (Dow et al., 2003; He et al., 2006), MDEA was tested for its ability to promote Xcc biofilm dispersion. The Xcc DSF mutant ΔrpfF, which formed extensive cell aggregates (biofilm) in YEB medium (FIG. 2a), was used in this assay.
# [3] = tested on: PexsCEBA-lacZ (T3SS reporter strain); experiment: T3SS reporter PexsCEBA-lacZ β-galactosidase activity; assay type: cell-based, Pseudomonas aeruginosa; details: LB medium with 10 mM NTA, OD600 about 1.5
# Excerpt: The promoter of exsCEBA was amplified by PCR using the primer pairs pC-F/pC-R ((5′-[…] (SEQ ID NO: 3)/5′-ggggcgcctcctaaagctc (SEQ ID NO: 4)), and cloned into the integration vector mini-CTX-lacZ (Zhou et al., 2007; Hoang et al., 2000; Becher and Schweizer, 2000). The construct was introduced into E. coli S17-1(λpir) and then integrated into the chromosome of P. aeruginosa as described previously (Hoang et al., 2000). The P. aeruginosa transconjugants were then selected on LB agar plates containing 100 μg/ml tetracycline and used as the T3SS reporter strain.
# For determination of the inhibitory activity against T3SS, MDEA was added to the LB medium supplemented with 10 mM NTA before inoculation of the T3SS reporter strain. After incubation at 37° C. till OD600 reached about 1.5, the bacterial cells were harvested by centrifugation to measure the β-galactosidase activities following the method previously described (Jeffrey, 1992).
# Type III secretion system (T3SS) is a major virulence determinant conserved in many Gram-negative bacterial pathogens. To test the ability of MDEA on regulation of T3SS gene expression in Pseudomonas aeruginosa, the T3SS reporter construct PexsCEBA-lacZ (Zhou et al., 2007) was used. The promoter PexsCEBA directs the expression of the T3SS master regulator ExsA, which positively controls the expression of all T3SS genes in P. aeruginosa (Yahr and Wolfgang, 2006; Frank, 1997).
compound,measurement,setting,value
"CC(C)CCCCC=CC/C=C\C(=O)O [MDEA, cis-11-methyldodeca-2,5-dienoic acid]",reduction in transcriptional expression of exsC,exsC,about 60%
same,yeast cells that germinate (germ tube formation),[1]; 0.5 μM MDEA,less than 30%
same,yeast cells that germinate (germ tube formation),[1]; 5 μM MDEA,< 5%
same,germ tube formation,[1]; 25 μM MDEA,0.17%
same,Effect on cell aggregates (biofilm) of Xcc DSF-deficient mutant,[2]; 1 μM MDEA,inhibited 8004dF biofilm formation; also recorded: eliminated most of the cell aggregates
same,Effect on cell aggregates (biofilm) of Xcc DSF-deficient mutant,[2]; 5 μM MDEA,inhibited 8004dF biofilm formation; also recorded: all the cell aggregates disappeared
same,reduction of PexsCEBA-lacZ activity,[3]; 5 μM MDEA,64.1%
same,reduction of PexsCEBA-lacZ activity,[3]; 10 μM MDEA,68.5%
same,reduction of PexsCEBA-lacZ activity,[3]; 25 μM MDEA,74.4%
